Assay results: ChEMBL document CHEMBL1140907, “Derivatives of 5-nitro-furan-2-carboxylic acid carbamoylmethyl ester inhibit RNase H activity associated with HIV-1 reverse transcriptase” (J Med Chem, 2009)
The source made the active and inactive calls. The rule behind the calls is not given here.

Assays:
[1] = target: Human immunodeficiency virus type 1 reverse transcriptase (Human immunodeficiency virus 1) (UniProt Q72547); assay: (§1) Inhibition of HIV1 LAI clade B reverse transcriptase RNase H activity by real time monitoring assay
[2] = Cytotoxicity against CD4-CXCR4 expressing human NP2 cells at >25 uM by MTT assay; assay type: cell-based
[3] = Cytotoxicity against T cells at >25 uM by MTT assay; assay type: cell-based; conditions: t-cell
[4] = test system: Human immunodeficiency virus 1; assay: Inhibition of HIV1 NL4-3 replication in CD4 expressing human T cells assessed as decrease in p24 antigen production at 25 uM after 4 days by ELISA; assay type: functional, organism-based; conditions: T-cell
[5] = test system: Human immunodeficiency virus 1; assay: Inhibition of HIV1 NL4-3 replication in CD4-CXCR4 expressing human NP2 cells assessed as decrease in p24 antigen production after 4 days by ELISA; conditions: Human immunodeficiency virus 1, NL4-3, NP2, 96 h
[6] = target: Human immunodeficiency virus type 1 integrase (Human immunodeficiency virus 1) (UniProt Q7ZJM1); assay: Inhibition of HIV1 integrase by real time monitoring assay
Human immunodeficiency virus type 1 integrase (Human immunodeficiency virus 1), sequence (Q7ZJM1 as listed by the source): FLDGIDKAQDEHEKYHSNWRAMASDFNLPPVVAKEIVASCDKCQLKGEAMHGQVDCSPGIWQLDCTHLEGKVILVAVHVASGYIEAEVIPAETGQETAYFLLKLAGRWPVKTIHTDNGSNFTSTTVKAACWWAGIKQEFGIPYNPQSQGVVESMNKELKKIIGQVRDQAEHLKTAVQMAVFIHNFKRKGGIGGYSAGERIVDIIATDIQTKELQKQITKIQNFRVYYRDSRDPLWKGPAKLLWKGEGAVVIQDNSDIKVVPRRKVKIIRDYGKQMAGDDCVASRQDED

[7] = test system: Escherichia coli; assay: Inhibition of Escherichia coli RNase H by real time monitoring assay
[8] = target: T1, Human immunodeficiency virus type 1 reverse transcriptase (Human immunodeficiency virus 1, UniProt Q72547); assay: Inhibition of HIV1 LAI CRF01 A_E s93JP-NH1 reverse transcriptase RNase H activity by real time monitoring assay; parameters: species or system 93JP-NH1
[9] = target: T1, Human immunodeficiency virus type 1 reverse transcriptase; assay: Inhibition of HIV1 LAI clade C 93IN101 reverse transcriptase RNase H activity by real time monitoring assay
[10] = target: T1, Human immunodeficiency virus type 1 reverse transcriptase; assay: as §1
[11] = Inhibition of murine leukemia virus reverse transcriptase by real time monitoring assay
[12] = Cytotoxicity against IL2 and anti-CD3-stimulated CD4 expressing primary T cells at 25 to 30 uM by MTT assay; assay type: cell-based; conditions: t-cell
[13] = target: T2, Ribonuclease H1 (Homo sapiens) (UniProt O60930); assay: Inhibition of human RNase H1 by real time monitoring assay
T2 sequence (whole entry): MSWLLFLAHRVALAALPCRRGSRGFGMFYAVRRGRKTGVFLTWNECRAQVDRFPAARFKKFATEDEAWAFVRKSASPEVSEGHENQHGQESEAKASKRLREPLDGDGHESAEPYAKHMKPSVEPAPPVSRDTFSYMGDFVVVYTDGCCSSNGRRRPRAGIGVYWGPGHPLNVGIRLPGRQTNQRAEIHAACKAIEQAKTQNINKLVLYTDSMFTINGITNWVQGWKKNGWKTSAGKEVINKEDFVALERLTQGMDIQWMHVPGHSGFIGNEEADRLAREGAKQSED

In the case of `CCOC(=O)c1c(-c2cccs2)csc1NC(=O)COC(=O)c1ccc([N+](=O)[O-])o1`, the Activity [1] is reported as “inactive”.
For `CN(C)S(=O)(=O)c1cccc(NC(=O)COC(=O)c2ccc([N+](=O)[O-])o2)c1`, the Activity [1] was “Active”.
With `O=C(OCC(=O)N(CC1CCCO1)c1nc(-c2ccc(Br)cc2)cs1)c1ccc([N+](=O)[O-])o1` (centres undefined) the Activity [2] was 50%, the Activity [3] was 50% and the Activity [4] was “Active”. The IC50 [5] was 22.7 µM, the Activity [6] was “inactive” and the Activity [7] was “inactive”. The IC50 [8] was 2.6 µM, the IC50 [9] was 32.2 µM and the IC50 [10] was 26.7 µM. For the same molecule, the IC50 [11] was 8.6 µM and the Activity [12] was 50%.
With `O=C(COC(=O)c1ccc[nH]1)NC12CC3CC(CC(C3)C1)C2` the Activity [1] was “inactive”.
For `O=C1CCC(C(=O)OCC(=O)NC23CC4CC(CC(C4)C2)C3)N1` (centres undefined), the Activity [1] was “inactive”.
In the case of `O=C(COC(=O)c1ccc([N+](=O)[O-])o1)Nc1ccc(F)cc1F`, the Activity [1] is reported as “inactive”.
For `CCOC(=O)c1sc(N(Cc2ccccc2)C(=O)COC(=O)c2ccc([N+](=O)[O-])o2)nc1C`, the Activity [1] was “inactive”.
In the case of `Cc1ccc(NC(=O)COC(=O)c2ccc([N+](=O)[O-])o2)cc1S(=O)(=O)N1CCCCCC1`, the Activity [1] is reported as “Active”.
For `CCOC(=O)c1c(NC(=O)COC(=O)c2ccc([N+](=O)[O-])o2)sc(C)c1C`, the Activity [1] was “inactive”.
With `O=C(COC(=O)c1ccc([N+](=O)[O-])o1)Nc1ccc(Cl)c(S(=O)(=O)N2CCOCC2)c1` the Activity [1] was “Active”.
With `O=C(COC(=O)c1ccc([N+](=O)[O-])o1)Nc1cc(C(F)(F)F)cc(C(F)(F)F)c1` the Activity [1] was “Active”.
In the case of `O=C(COC(=O)c1ccc([N+](=O)[O-])o1)Nc1ccccc1F`, the Activity [1] is reported as “inactive”.
With `O=C(COC(=O)c1ccc([N+](=O)[O-])o1)NC12CC3CC(CC(C3)C1)C2` the Activity [2] was 50%, the Activity [3] was 50% and the Activity [6] was “inactive”. The Activity [7] was “inactive”, the IC50 [8] was 3.8 µM and the IC50 [9] was 26.5 µM. It also gave an IC50 [10] of 29.6 µM, an IC50 [11] of 8.4 µM and an Activity [12] of 50%. The Activity [13] was “inactive”.
With `O=C(COC(=O)c1ccccn1)NC12CC3CC(CC(C3)C1)C2` the Activity [1] was “inactive”.
For `Cc1ccc(NC(=O)COC(=O)c2ccc([N+](=O)[O-])o2)cc1`, the Activity [1] was “inactive”.
In the case of `O=C(COC(=O)c1ccc([N+](=O)[O-])o1)Nc1nc2ccccc2s1`, the Activity [1] is reported as “Active”.
In the case of `O=C(COC(=O)c1cccnc1Cl)NC12CC3CC(CC(C3)C1)C2`, the Activity [1] is reported as “inactive”.
For `CCOc1cc(N2CCOCC2)cc(OCC)c1NC(=O)COC(=O)c1ccc([N+](=O)[O-])o1`, the Activity [1] was “inactive”.
For `O=C(COC(=O)c1ccc([N+](=O)[O-])o1)Nc1ncc(C(F)(F)F)cc1Cl`, the Activity [1] was “Active”.
In the case of `O=C(COC(=O)c1cncc(Br)c1)NC12CC3CC(CC(C3)C1)C2`, the Activity [1] is reported as “inactive”.
